In patent US10842878B2, “Degradation of Bruton's tyrosine kinase (BTK) by conjugation of BTK inhibitors with E3 ligase ligand and methods of use” (Dana-Farber Cancer Institute, Inc., priority 2016, dated 2020):

Biological target: T1, BTK (Homo sapiens, UniProt Q06187)
T1 construct: protein lysate harvest and Western blotting analysis of BTK, Aurora A, and α-tubulin levels; endogenous in cells; host or cells: MOLM14 cells
Assay: Cell assay and Western blotting analysis of BTK levels in MOLM14 cells
Type: cell-based
Conditions: MOLM14 cells treated with 40 nM, 200 nM, 1 μM for 4 or 12 hours (FIG. 1: 4 hours); DMSO control; Aurora A and α-tubulin also blotted
Protocol: MOLM14 cells were treated with DMSO or with 40 nM, 200 nM, 1 μM of a BTK bifunctional inhibitor compound of the disclosure for 4 or 12 hours, followed by protein lysate harvest and Western blotting analysis of BTK, Aurora A, and α-tubulin levels.
Cells are lysed using RIPA buffer supplemented with protease inhibitor cocktail (Roche) and phosSTOP phosphatase inhibitor cocktail (Roche) on ice for 15 minutes. The lysates are spun at 20,000×g for 15 minutes on 4° C. and protein concentration is determined using BCA assay (Pierce). The following primary antibodies are used in this study: BTK, GADPH, tubulin and Aurora A kinase (all from Cell Signaling Technology). Blots are imaged using fluorescence-labeled secondary antibodies (LI-COR) on the OdysseyCLxImager (LI-COR). Quantification of band intensities is performed using OdysseyCLx software (LI-COR).

T1 sequence (Q06187 whole entry): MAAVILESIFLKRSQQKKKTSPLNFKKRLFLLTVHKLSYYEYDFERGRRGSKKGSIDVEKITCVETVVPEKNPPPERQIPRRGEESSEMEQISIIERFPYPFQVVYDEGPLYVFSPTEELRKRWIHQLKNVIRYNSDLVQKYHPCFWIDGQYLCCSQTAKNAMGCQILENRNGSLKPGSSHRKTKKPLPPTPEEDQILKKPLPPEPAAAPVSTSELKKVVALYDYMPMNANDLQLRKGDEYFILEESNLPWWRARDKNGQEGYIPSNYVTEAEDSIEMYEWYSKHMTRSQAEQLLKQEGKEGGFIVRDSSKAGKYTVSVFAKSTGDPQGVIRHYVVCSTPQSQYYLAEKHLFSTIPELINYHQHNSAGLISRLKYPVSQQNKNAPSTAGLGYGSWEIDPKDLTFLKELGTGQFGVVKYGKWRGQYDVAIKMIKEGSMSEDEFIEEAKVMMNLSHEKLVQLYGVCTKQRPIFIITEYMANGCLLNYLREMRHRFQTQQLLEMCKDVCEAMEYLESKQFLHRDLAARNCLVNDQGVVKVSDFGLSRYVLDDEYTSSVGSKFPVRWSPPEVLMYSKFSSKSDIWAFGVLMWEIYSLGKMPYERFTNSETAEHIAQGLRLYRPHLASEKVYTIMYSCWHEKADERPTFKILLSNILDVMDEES

Q: Which “BTK degradation (Western blotting analysis of BTK levels)” value does the source give for Cc1c(NC(=O)c2ccc(C(C)(C)C)cc2)cccc1-c1cn(C)c(=O)c(Nc2ccc(C(=O)N3CCN(CCOCCOCCNC(=O)CNc4cccc5c4C(=O)N(C4CCC(=O)NC4=O)C5=O)CC3)cc2)n1 (stereo not shown) [Compound I-5, 4-(tert-butyl)-N-(3-(6-((4-(4-(2-(2-(2-(2-((2-(2,6-dioxopiperidin-3-yl)-1,3-dioxoisoindolin-4-yl)amino)acetamido)ethoxy)ethoxy)ethyl)piperazine-1-carbonyl)phenyl)amino)-4-methyl-5-oxo-4,5-dihydropyrazin-2-yl)-2-methylphenyl)benzamide] here?
A: showed BTK degradation
